Consider eleven molecules from US20100144743A1, “COMPOSITIONS AND METHODS FOR INHIBITION OF TYROSINE KINASES” (BOARD OF REGENTS, THE UNIVERSITY OF TEXAS SYSTEM, priority 2006, published 2010).

Data set [1] has as its system HIF-1. The data set is described as follows: HIF-1 GFP/DsRFP expression (G/R) in C6#4 cells stimulated by CoCl2. In kind it is cell-based.
The test system of data set [2] is C6#4 cells.

pEC50: −log10 of the molar value. Where “and” joins values, the source holds several entries; their conditions need not be identical. Equal values may be shown once. Read-outs that look alike come from different tables or passages of the source.

Regarding `c1ccc(Oc2ccc(Nc3nccn4c(-c5ccc6[nH]ccc6c5)cnc34)cc2)cc1` [LG2-7], the “G/R:WST-1 Ratio Mean” value in data set [1] was 5.6 and 5.633. The pEC50 in data set [1] (read-out: G/R (EC-50)) is 5.04; in data set [1] (read-out: G/R (EC-50) 1 ex), 4.85; in data set [1] (read-out: G/R (EC-50) 2 ex) it was 5.03; in data set [1] (read-out: G/R (EC-50) 3 ex), 5.41; in data set [1] (read-out: G/R (REC-50) Mean) it was 5.04; in data set [2] (read-out: WST-1 (EC-50)), 4.45. Further, the pEC50 in data set [2] (read-out: WST-1 (EC-50) 1 ex) is 4.64; in data set [2] (read-out: WST-1 (EC-50) 2 ex), 4.40; in data set [2] (read-out: WST-1 (EC-50) 3 ex), 4.37; in data set [2] (read-out: WST-1 (EC-50) Mean) it was 4.45.
Consider `CN(C)CCNC(=O)c1ccc(-c2cnc3c(Nc4ccc(Oc5ccccc5)cc4)nccn23)cc1` [LG2-11], for which the “G/R:WST-1 Ratio Mean” value in data set [1] is 2.2 and 2.237. Moreover, the pEC50 was 4.96 in data set [1] (read-out: G/R (EC-50) 1 ex); 4.80 in data set [1] (read-out: G/R (EC-50) 2 ex); 5.22 in data set [1] (read-out: G/R (EC-50) 3 ex); 4.71 in data set [2] (read-out: WST-1 (EC-50)); 4.74 in data set [2] (read-out: WST-1 (EC-50) 1 ex); 4.78 in data set [2] (read-out: WST-1 (EC-50) 2 ex). Moreover, the pEC50 in data set [2] (read-out: WST-1 (EC-50) 3 ex) was 4.62; in data set [2] (read-out: WST-1 (EC-50) Mean) it was 4.71.
Regarding `COc1ccc(Nc2nccn3c(-c4cccc(C(N)=O)c4)cnc23)cc1` [LG2-13], the pEC50 is 5.10 in data set [1] (read-out: EC 50 G/R); 5.16 in data set [1] (read-out: G/R (EC-50) 2 ex); 5.05 in data set [1] (read-out: G/R (EC-50) 3 ex); 5.15 in data set [2] (read-out: WST-1 (EC-50) 1 ex); 4.00 in data set [2] (read-out: WST-1 (EC-50) 2 ex); 4.00 in data set [2] (read-out: WST-1 (EC-50) 3 ex). For the same molecule, the cytotoxicity entry in data set [2] is given as “doesn't have cytotoxicity”.
Regarding `COc1cc(-c2cnc3c(Nc4ccccc4)nccn23)ccc1O` [LG2-62], the “G/R:WST-1 Ratio Mean” value in data set [1] is 1.5 and 1.533. Also, the pEC50 was 4.72 in data set [1] (read-out: G/R (EC-50)); 4.87 in data set [1] (read-out: G/R (EC-50) 1 ex); 4.61 in data set [1] (read-out: G/R (EC-50) 2 ex); 4.72 in data set [1] (read-out: G/R (EC-50) 3 ex); 4.72 in data set [1] (read-out: G/R (REC-50) Mean); 4.52 in data set [2] (read-out: WST-1 (EC-50)). The pEC50 was 4.71 in data set [2] (read-out: WST-1 (EC-50) 1 ex), 4.36 in data set [2] (read-out: WST-1 (EC-50) 2 ex), 4.57 in data set [2] (read-out: WST-1 (EC-50) 3 ex) and 4.52 in data set [2] (read-out: WST-1 (EC-50) Mean).
As for `CC(C)c1ccc(Nc2nccn3c(-c4cccc(O)c4)cnc23)cc1` [LG2-65], the pEC50 is 2.04 in data set [1] (C6#4 cells, experiment 1, read-out: G/R (EC-50) 1 ex); 2.41 in data set [1] (C6#4 cells, experiment 2, read-out: G/R (EC-50) 2 ex); 2.25 in data set [1] (C6#4 cells, experiment 3, read-out: G/R (EC-50) 3 ex); 4.25 in data set [2] (read-out: WST-1 (EC-50) 1 ex, C6#4 cells, experiment 1). In addition, the “influence on C6#4 cells” value in data set [2] (concentration 200 μM) was “doesn't influence”.
For `COc1cc(Nc2nccn3c(-c4cccc(C(C)=O)c4)cnc23)cc(OC)c1OC` [LG2-75], the “G/R:WST-1 Ratio Mean” value in data set [1] is 1.2 and 1.233. Moreover, the pEC50 was 4.83 in data set [1] (read-out: G/R (EC-50)); 5.36 in data set [1] (read-out: G/R (EC-50) 1 ex); 4.79 in data set [1] (read-out: G/R (EC-50) 2 ex); 4.63 in data set [1] (read-out: G/R (EC-50) 3 ex); 4.83 in data set [1] (read-out: G/R (REC-50) Mean); 4.78 in data set [2] (read-out: WST-1 (EC-50)). The pEC50 is 5.15 in data set [2] (read-out: WST-1 (EC-50) 1 ex), 4.78 in data set [2] (read-out: WST-1 (EC-50) 2 ex), 4.57 in data set [2] (read-out: WST-1 (EC-50) 3 ex) and 4.78 in data set [2] (read-out: WST-1 (EC-50) Mean).
In the case of `CC(=O)c1cccc(-c2cnc3c(Nc4ccc(N5CCOCC5)cc4)nccn23)c1` [LG2-81], the “G/R:WST-1 Ratio Mean” value in data set [1] was 3.7. In addition, the pEC50 in data set [1] (read-out: G/R (EC-50)) was 4.98; in data set [1] (read-out: G/R (EC-50) 1 ex) it was 5.06; in data set [1] (read-out: G/R (EC-50) 2 ex), 4.91; in data set [1] (read-out: G/R (EC-50) 3 ex), 4.98; in data set [1] (read-out: G/R (REC-50) Mean), 4.98; in data set [2] (read-out: WST-1 (EC-50)) it was 4.41. Moreover, the pEC50 in data set [2] (read-out: WST-1 (EC-50) 1 ex) was 4.49; in data set [2] (read-out: WST-1 (EC-50) 2 ex), 4.40; in data set [2] (read-out: WST-1 (EC-50) 3 ex), 4.36; in data set [2] (read-out: WST-1 (EC-50) Mean), 4.41.
On to `COc1cccc(-c2cnc3c(Nc4ccccc4)nccn23)c1` [LG2-85], for which the “G/R:WST-1 Ratio Mean” value in data set [1] is 2.0 and 2.033. Further, the pEC50 is 4.63 in data set [1] (read-out: G/R (EC-50)); 4.62 in data set [1] (read-out: G/R (EC-50) 1 ex); 4.64 in data set [1] (read-out: G/R (EC-50) 2 ex); 4.63 in data set [1] (read-out: G/R (EC-50) 3 ex); 4.63 in data set [1] (read-out: G/R (REC-50) Mean); 4.32 in data set [2] (read-out: WST-1 (EC-50)). Moreover, the pEC50 was 4.46 in data set [2] (read-out: WST-1 (EC-50) 1 ex), 4.38 in data set [2] (read-out: WST-1 (EC-50) 2 ex), 4.17 in data set [2] (read-out: WST-1 (EC-50) 3 ex) and 4.32 in data set [2] (read-out: WST-1 (EC-50) Mean).
As for `c1ccc2c(-c3cnc4c(Nc5ccc6[nH]ccc6c5)nccn34)cccc2c1` [LG2-89], in data set [1], the “G/R:WST-1 Ratio Mean” value was 1.4 and 1.383. Also, the pEC50 in data set [1] (read-out: G/R (EC-50)) is 4.55; in data set [1] (read-out: G/R (EC-50) 1 ex), 4.86; in data set [1] (read-out: G/R (EC-50) 2 ex), 4.37; in data set [1] (read-out: G/R (EC-50) 3 ex), 4.57; in data set [1] (read-out: G/R (REC-50) Mean) it was 4.55; in data set [2] (read-out: WST-1 (EC-50)) it was 4.45. Moreover, the pEC50 in data set [2] (read-out: WST-1 (EC-50) 1 ex) is 4.67; in data set [2] (read-out: WST-1 (EC-50) 2 ex) it was 4.39; in data set [2] (read-out: WST-1 (EC-50) 3 ex) it was 4.35; in data set [2] (read-out: WST-1 (EC-50) Mean), 4.45.
As to `O=C(NCCO)c1cccc(-c2cnc3c(NCc4cccs4)nccn23)c1` [LG2-98], the pEC50 in data set [1] (C6#4 cells, 24 h exposure, GFP normalized to RFP, Table 2, read-out: G/R (EC-50)) was 4.69.
Take `COc1cc(OC)cc(-c2cnc3c(NCC4CC4)nccn23)c1` [LG2-102]: the results for the pEC50 in data set [1] (read-out: G/R (EC-50)) and in data set [2] (read-out: WST-1 (EC-50)) were 4.43 and 4.28, respectively.
